Results taken from patent US6265578A, “Pyrimidine-2,4,6-triones” (Hoffmann-La Roche Inc., priority 2000, dated 2001).
Where two headings read alike, the source gives them in different places.

Legend:
Assay type in all cases: biochemical
[1] = system: human stromelysin-1 (catalytic domain); experiment: IC50 for inhibition of the catalytic domain of human stromelysin-1, fluorogenic substrate assay (Strom-1); conditions: pH 6.5, ambient temperature, 60 min, 10 μM substrate, 10 nM enzyme
Protocol: (§1) Human 72 kDa gelatinase was purified from the conditioned media of fetal lung fibroblasts according to known methods. The enzyme was stored in the pro-form at -80° C. and activated prior to use by treatment with 1 mM aminophenyl mercuriacetate (APMA) for 1 hour at 37° C., then dialyzed against reaction buffer before use. Human neutrophil gelatinase (95 kDa gelatinase) was purified from conditioned media of NSO-cells according to known methods. This enzyme was likewise stored in the zymogen form at -80° C. It was activated by treatment with trypsin (5 μg/mL) for 1 hour at 37° C., followed by addition of bovine pancreatic trypsin inhibitor to 50 μg/mL. Human matrilysin was obtained from a bacterial expression system as a ubiquitin fusion construct Welch, A. R., Holman, C. M., Browner, M. F., Gehring, M. R., Kan, C.-C., & Van Wart, H. E. (1995) Arch. Biochem. Biophys. 324, 59-64. The mature form of matrilysin was purified following activation with 1 mM APMA (1 hour, 37° C.) and the active enzyme stored at -80° C. The catalytic domain of human collagenase-3 was obtained in a manner analogous to that for matrilysin. The final form of collagenase-3 used for these studies consisted of the residues Tyr104 -Asn274 from the full length collagenase sequence. The catalytic domain of human stromelysin-1 was produced via E. coli expression and purification according to known methods; the activated, catalytic domain was stored at -80° C.
The assay methods utilized the fluorogenic substrate: Dnp-Pro-Cha-Gly-Cys(Me)-His-Ala-Lys(NMA)-NH2. […]
Measurements for stromelysin-1: the catalytic domain of stromelysin-1 was tested using the same substrate but with a modified protocol. […] The reaction was started by addition of an aliquot of enzyme stock and the generated fluorescence was read directly after 60 minutes. […] The % inh[I] was calculated as: […]
where Fluor[I]=corrected fluorescence at 60 minutes observed for inhibitor concentration [I]
FluorPC=corrected fluorescence at 60 minutes observed for the positive control […]

[2] = target: T1, gelatinase-B (human neutrophil gelatinase, 95 kDa gelatinase) (Homo sapiens, UniProt P14780); experiment: IC50 for inhibition of gelatinase-B (human neutrophil gelatinase, 95 kDa), fluorogenic peptide cleavage assay (GelB)
T1 construct: made in house; host or cells: NSO-cells (purified from conditioned media)
T1 sequence (P14780 107-707 limits assumed): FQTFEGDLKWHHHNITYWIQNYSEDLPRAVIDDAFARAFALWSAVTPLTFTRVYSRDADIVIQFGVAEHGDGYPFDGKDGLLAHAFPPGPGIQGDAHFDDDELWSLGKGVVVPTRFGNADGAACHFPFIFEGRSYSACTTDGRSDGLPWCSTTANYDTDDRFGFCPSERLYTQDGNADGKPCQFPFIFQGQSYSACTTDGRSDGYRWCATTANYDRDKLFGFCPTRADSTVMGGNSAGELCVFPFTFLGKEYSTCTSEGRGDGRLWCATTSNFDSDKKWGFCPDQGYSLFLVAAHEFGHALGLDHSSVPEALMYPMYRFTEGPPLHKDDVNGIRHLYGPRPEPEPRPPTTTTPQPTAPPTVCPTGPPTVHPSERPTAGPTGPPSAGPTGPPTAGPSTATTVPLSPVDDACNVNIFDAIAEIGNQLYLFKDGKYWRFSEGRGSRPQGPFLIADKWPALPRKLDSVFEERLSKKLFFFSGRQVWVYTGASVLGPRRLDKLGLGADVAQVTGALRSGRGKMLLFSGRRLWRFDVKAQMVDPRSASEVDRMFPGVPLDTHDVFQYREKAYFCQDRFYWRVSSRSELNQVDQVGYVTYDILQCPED
Protocol: For gelatinase-A and gelatinase-B, the buffer was pH 7.5, 50 mM TrisHCl, 200 mM NaCl, 5 mM CaCl2, 20 μM ZnCl2, 0.05% (wt/v) Brij-35. […] The final substrate concentration in all cases 10 μM. The approximate concentrations for the enzymes were: gelatinase-A, 0.8 nM; gelatinase-B, 0.5 nM; collagenase-3, 0.4 nM; matrilysin, 10 nM. To perform the peptide cleavage assay, the vessel containing buffer and compound of formula I were pre-equilibrated at 37° C., then the reaction initiated by successive addition of concentrated stocks of enzyme and substrate, and incubation at 37° C. was continued. At successive time points between 30 and 120 minutes, 50 μL aliquots of the assays were pulled and the enzymatic reaction stopped by addition to 150 μL of 30 mM EDTA (pH 7.4) in the well of a black, flat bottom microtiter plate. The extent of substrate conversion was determined by reading the fluorescence of the stopped reactions (excitation wavelength: 355 nm; emission wavelength: 460 nM).
% inh[I]=100(1-rate[I]/ratePC)
(§2) % inh[I]=percent inhibition at inhibitor concentration [I]
(§3) rate[I]=rate at inhibitor concentration [I]
ratePC=rate of positive control […]

[3] = target: T2, human collagenase-3 (catalytic domain) (Homo sapiens, UniProt P45452); experiment: IC50 for inhibition of the catalytic domain of human collagenase-3, fluorogenic peptide cleavage assay (Coll-3)
T2 construct: ubiquitin (cleaved yes); made in house; host or cells: bacterial expression system (analogous to matrilysin)
Protocol: Human matrilysin was obtained from a bacterial expression system as a ubiquitin fusion construct Welch, A. R., Holman, C. […] The mature form of matrilysin was purified following activation with 1 mM APMA (1 hour, 37° C.) and the active enzyme stored at -80° C. The catalytic domain of human collagenase-3 was obtained in a manner analogous to that for matrilysin. The final form of collagenase-3 used for these studies consisted of the residues Tyr104 -Asn274 from the full length collagenase sequence.
For matrilysin and the catalytic domain of collagenase-3, the buffer composition was pH 7.5, 50 mM Hepes, 200 mM NaCl, 5 mM CaCl2, 20 μM ZnCl2, 0.05% (wt/v) Brij-35. The final substrate concentration in all cases 10 μM. The approximate concentrations for the enzymes were: gelatinase-A, 0.8 nM; gelatinase-B, 0.5 nM; collagenase-3, 0.4 nM; matrilysin, 10 nM. To perform the peptide cleavage assay, the vessel containing buffer and compound of formula I were pre-equilibrated at 37° C., then the reaction initiated by successive addition of concentrated stocks of enzyme and substrate, and incubation at 37° C. was continued. At successive time points between 30 and 120 minutes, 50 μL aliquots of the assays were pulled and the enzymatic reaction stopped by addition to 150 μL of 30 mM EDTA (pH 7.4) in the well of a black, flat bottom microtiter plate.
% inh[I]=100(1-rate[I]/ratePC)
as §2, §3
ratePC=rate of positive control […]

[4] = target: T3, gelatinase-A (human 72 kDa gelatinase) (Homo sapiens, UniProt P08253); experiment: IC50 for inhibition of gelatinase-A (human 72 kDa gelatinase), fluorogenic peptide cleavage assay (GelA)
T3 construct: endogenous in cells; host or cells: fetal lung fibroblasts (purified from conditioned media)
T3 sequence (P08253 110-660): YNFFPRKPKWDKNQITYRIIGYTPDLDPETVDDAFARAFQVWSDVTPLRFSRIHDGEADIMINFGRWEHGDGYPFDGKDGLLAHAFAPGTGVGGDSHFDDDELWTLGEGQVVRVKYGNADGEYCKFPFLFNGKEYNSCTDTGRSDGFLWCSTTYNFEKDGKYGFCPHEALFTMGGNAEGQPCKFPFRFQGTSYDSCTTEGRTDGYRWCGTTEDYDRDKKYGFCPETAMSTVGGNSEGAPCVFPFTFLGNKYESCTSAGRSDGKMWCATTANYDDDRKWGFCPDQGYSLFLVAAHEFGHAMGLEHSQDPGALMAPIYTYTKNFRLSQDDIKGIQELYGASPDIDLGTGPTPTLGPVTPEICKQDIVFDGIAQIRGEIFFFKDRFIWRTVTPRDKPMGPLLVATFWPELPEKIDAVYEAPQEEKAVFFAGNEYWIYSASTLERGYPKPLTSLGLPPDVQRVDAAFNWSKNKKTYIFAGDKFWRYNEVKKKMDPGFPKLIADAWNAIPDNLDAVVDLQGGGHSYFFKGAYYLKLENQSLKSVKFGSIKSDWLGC
Protocol: as §1
The assay methods utilized the fluorogenic substrate: Dnp-Pro-Cha-Gly-Cys(Me)-His-Ala-Lys(NMA)-NH2. (Dnp=dinitro phenyl; Cha=cyclohexylalanine; Cys(Me)=S-methyl cysteine, Lys(NMA)=N^ε-methyl-anthranoyl-1-lysine). Stock solutions were prepared in DMSO. Stock solutions of compounds of formula I (inhibitor) were also prepared in DMSO.
For gelatinase-A and gelatinase-B, the buffer was pH 7.5, 50 mM TrisHCl, 200 mM NaCl, 5 mM CaCl2, 20 μM ZnCl2, 0.05% (wt/v) Brij-35. For matrilysin and the catalytic domain of collagenase-3, the buffer composition was pH 7.5, 50 mM Hepes, 200 mM NaCl, 5 mM CaCl2, 20 μM ZnCl2, 0.05% (wt/v) Brij-35. The final substrate concentration in all cases 10 μM. The approximate concentrations for the enzymes were: gelatinase-A, 0.8 nM; gelatinase-B, 0.5 nM; collagenase-3, 0.4 nM; matrilysin, 10 nM. […] The extent of substrate conversion was determined by reading the fluorescence of the stopped reactions (excitation wavelength: 355 nm; emission wavelength: […]).
A rate at each inhibitor concentration was obtained from a linear least squares fit to the fluorescence time course. The percent inhibition at inhibitor concentration [I] was calculated as: […]

[5] = catalytic domain, pH 7.5, 37° C., 10 μM substrate, 0.4 nM enzyme, 5% DMSO, read-out: IC50 Coll-3

Row | SMILES | IC50 [1] [nM] | IC50 ([2]; pH 7.5, 37° C., 10 μM substrate, 0.5 nM enzyme, 5% DMSO, read-out: IC50 GelB) [nM] | IC50 [3, 5] [nM] | IC50 [4] [nM] | IC50 [2] [nM] | IC50 ([1]; value in nM) [nM] | IC50 [3] [nM] | IC50 ([4]; pH 7.5, 37° C., 10 μM substrate, 0.8 nM enzyme, 5% DMSO, read-out: IC50 GelA) [nM]
1 | CC1(c2ccc(Oc3ccccc3)cc2)C(=O)NC(=O)NC1=O [A, 5-methyl-5-(4-phenoxyphenyl)pyrimidine-2,4,6-trione] | 2000 | 52 | 65 | 80 |  |  |  | 
2 | CCCCCCC1(c2ccc(Oc3ccccc3)cc2)C(=O)NC(=O)NC1=O [B, 5-hexyl-5-(4-phenoxyphenyl)pyrimidine-2,4,6-trione] | 2000 |  | 78 | 67 | 50 |  |  | 
3 | O=C1NC(=O)C(COCc2ccccc2)(c2ccc(Oc3ccccc3)cc2)C(=O)N1 [C, 5-benzyloxymethyl-5-(4-phenoxyphenyl)pyrimidine-2,4,6-trione] |  |  |  | 26 | 23 | 930 | 47 | 
4 | O=C1NC(=O)C(CCO)(c2ccc(Oc3ccccc3)cc2)C(=O)N1 [D, 5-(2-hydroxyethyl)-5-(4-phenoxyphenyl)pyrimidine-2,4,6-trione] |  |  |  |  |  |  |  | 59
